The values that follow come from patent US8609698B2, “Substituted dipyridyl-dihydropyrazolones and use thereof” (Bayer Intellectual Property GmbH, priority 2006, dated 2013).

Structures can show the parent of a compound that is named as a salt.

This test deals with HIF prolyl hydroxylase. Put plainly: Inhibition of the activity of HIF prolyl hydroxylase (VBC complex binding test). The class given is biochemical. The text has this: 1. In Vitro Tests for Determination of the Activity and Selectivity of HIF Prolyl 4-Hydroxylase Inhibitors 1.a) Inhibition of the Activity of HIF Prolyl Hydroxylase:
Hydroxylated HIF bonds specifically to the von Hippel-Lindau protein-elongin B-elongin C complex (VBC complex). This interaction occurs only if HIF is hydroxylated on a conserved prolyl radical. It is the basis for the biochemical determination of HIF prolyl hydroxylase activity.
A clear 96-well microtiter plate coated with NeutrAvidin HBC (Pierce) is incubated with blocker casein for 30 minutes. The plate is then washed three times with 200 μl each time of wash buffer (50 mM Tris, pH 7.5, 100 mM NaCl, 10% (v/v) blocker casein, 0.05% (v/v) Tween 20) per well. […] This peptide serves as a substrate for the prolyl hydroxylation and is bonded to the microtiter plate. After incubation for 60 minutes, the plate is washed three times with wash buffer, incubated with 1 mM biotin in blocker casein for 30 minutes and then washed again three times with wash buffer.
To carry out the prolyl hydroxylase reaction, the peptide substrate bonded to the plate is incubated with a cell lysate containing prolyl hydroxylase for 1 to 60 minutes. The reaction takes place in 100 μl reaction buffer (20 mM Tris, pH 7.5, 5 mM KCl, 1.5 mM MgCl2, 1 μM-1 mM 2-oxoglutarate, 10 μM FeSO4, 2 mM ascorbate) at room temperature. The reaction mixture moreover contains various concentrations of the prolyl hydroxylase inhibitor to be tested. The test substance is preferably, but not exclusively, employed at concentrations of between 1 nM and 100 μM. The reaction is stopped by washing the plate three times with wash buffer.
For quantitative determination of the prolyl hydroxylation, a fusion protein which contains both thioredoxin from E. coli and the VBC complex in 80 μl bonding buffer (50 mM Tris, pH 7.5, 120 mM NaCl) is added. After 15 minutes, 10 μl of a solution of polyclonal anti-thioredoxin antibodies from rabbit in bonding buffer are added. After a further 30 minutes, 10 μl of a solution of anti-rabbit immunoglobulin coupled to horseradish peroxidase in bonding buffer are added. After incubation at room temperature for 30 minutes, the plate is washed three times with wash buffer in order to remove non-bonded VBC complex and antibodies. To determine the amount of bonded VBC complex, the plate is incubated with TMB for 15 minutes. The color reaction is ended by addition of 100 μl 1 M sulfuric acid. The amount of bonded VBC complex is determined by measurement of the optical density at 450 nm. It is proportional to the amount of hydroxylated proline in the peptide substrate.
Alternatively, a VBC complex coupled to europium (Perkin Elmer) can be used for detection of the prolyl hydroxylation. In this case, the amount of bonded VBC complex is determined by the fluorescence with respect to time. The use of VBC complex labeled with [^35S]-methionine is moreover possible. For this, the radioactively labeled VBC complex can be prepared by in vitro transcription-translation in reticulocyte lysate.
Turning to `CC(C)(C)NC(=O)c1ccc(-n2[nH]cc(-c3cccnc3)c2=O)nc1` [Example 18, N-tert-Butyl-6-(5-oxo-4-pyridin-3-yl-2,5-dihydro-1H-pyrazol-1-yl)pyridine-3-carboxamide hydrochloride], the IC50 was 910 nM.
Consider `Cc1ccccc1NC(=O)OCc1ccc(-n2[nH]cc(-c3cccnc3)c2=O)nc1` [Example 80], for which the IC50 is 1600 nM.
The compound `COCCNCc1ccc(-n2[nH]cc(-c3cccnc3)c2=O)nc1` [Example 5, 2-(5-{[(2-Methoxyethyl)amino]methyl}pyridin-2-yl)-4-pyridin-3-yl-1,2-dihydro-3H-pyrazol-3-one hydrochloride] gave an IC50 of 6300 nM.
For `O=c1c(-c2cccnc2)c[nH]n1-c1ccc(Cn2cccc2)cn1` [Example 22, 4-Pyridin-3-yl-2-[5-(1H-pyrrol-1-ylmethyl)pyridin-2-yl]-1,2-dihydro-3H-pyrazol-3-one hydrochloride], the IC50 turned out to be 3240 nM.
Consider `O=C(O)c1ccc(-n2[nH]cc(-c3cncc(Br)c3)c2=O)nc1` [Example 10, 6-[4-(5-Bromopyridin-3-yl)-5-oxo-2,5-dihydro-H-pyrazol-1-yl]pyridine-3-carboxylic acid hydrochloride], for which the IC50 is 260 nM.
`Cc1ccnc(-n2[nH]cc(-c3cncc(C#N)c3)c2=O)c1` [Example 8, 5-[2-(4-Methylpyridin-2-yl)-3-oxo-2,3-dihydro-1H-pyrazol-4-yl]pyridine-3-carbonitrile hydrochloride] showed a 50% inhibitory concentration (IC50) of 5200 nM.
`O=C(NCc1ccnc(-n2[nH]cc(-c3cccnc3)c2=O)c1)Nc1c(Cl)cccc1Cl` [Example 65] registered an IC50 of 900 nM.
